Assay results as given in US8236818B2, “Substituted imidazopyridine derivatives as melanocortin-4 receptor antagonists” (Santhera Pharmaceuticals (Schweiz) AG, priority 2007, dated 2012).

How the values were obtained:
melanocortin-4 receptor [1] = biological target: T1, melanocortin-4 receptor (Homo sapiens, UniProt P32245); assay: Membrane binding assay (fluorescence polarization, competition with fluorescence labeled NDP-alpha-MSH); conditions: read-out: hMC-4R binding assay IC50/μM
T1 construct: expressed in transfected cells; host or cells: HEK293 cells (membrane preparations)

melanocortin-4 receptor [2] = biological target: T1, melanocortin-4 receptor; assay: Functional assay (cAMP fluorescence polarization, membrane based, agonistic activity); format: biochemical; conditions: for Emax: 2 h, read-out: % activation functional assay; for EC50: agonistic activity, cAMP, HEK293 membrane preparations, read-out: hMC-4R functional assay EC50/μM

T1 sequence (P32245 whole entry): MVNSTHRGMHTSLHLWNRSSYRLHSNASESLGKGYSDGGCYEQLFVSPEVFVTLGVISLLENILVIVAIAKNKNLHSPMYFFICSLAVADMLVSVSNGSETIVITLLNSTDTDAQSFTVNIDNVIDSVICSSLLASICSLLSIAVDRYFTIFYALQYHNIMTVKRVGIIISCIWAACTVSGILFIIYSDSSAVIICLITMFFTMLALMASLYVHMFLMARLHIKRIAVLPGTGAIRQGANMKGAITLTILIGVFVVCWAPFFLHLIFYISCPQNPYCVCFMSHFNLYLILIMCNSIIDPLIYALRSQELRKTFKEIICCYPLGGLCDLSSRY

CC(C)CCN(CCC(C)C)C(=O)c1ccc2nc(-c3ccc4c(c3)OCCO4)c(CCCN)n2c1 [Example 1]
IC50 (melanocortin-4 receptor [1]): 0.1 to 1 µM
Emax (melanocortin-4 receptor [2]): 0%

CC(C)CCN(CCC(C)C)C(=O)c1ccc2nc(-c3ccc4c(c3)OCCO4)c(CCCN3CCCCC3)n2c1 [Example 2]
IC50 (melanocortin-4 receptor [1]): < 0.1 µM
Emax (melanocortin-4 receptor [2]): 0%

COc1ccc(-c2nc3ccc(C(=O)N(CCC(C)C)CCC(C)C)cn3c2CCCN)cc1 [Example 3]
IC50 (melanocortin-4 receptor [1]): 0.1 to 1 µM
Emax (melanocortin-4 receptor [2]): 0%

CC(C)CCN(CCC(C)C)C(=O)c1ccc2nc(-c3ccc(Cl)cc3)c(CCCN)n2c1 [Example 4]
IC50 (melanocortin-4 receptor [1]): 0.1 to 1 µM
Emax (melanocortin-4 receptor [2]): 0%

COc1ccc(-c2nc3ccc(C(=O)N(CCC(C)C)CCC(C)C)cn3c2CCCN(C)C)cc1 [Example 5]
IC50 (melanocortin-4 receptor [1]): 0.1 to 1 µM
Emax (melanocortin-4 receptor [2]): 0%

COc1ccc(-c2nc3ccc(C(=O)N(CCC(C)C)CCC(C)C)cn3c2CCCN2CCCC2)cc1 [Example 6]
IC50 (melanocortin-4 receptor [1]): < 0.1 µM
Emax (melanocortin-4 receptor [2]): 0%

COc1cccc(-c2nc3ccc(C(=O)N(CCC(C)C)CCC(C)C)cn3c2CCCNC(C)C)c1 [Example 7]
IC50 (melanocortin-4 receptor [1]): 0.1 to 1 µM
Emax (melanocortin-4 receptor [2]): 0%

CCN(CC)CCCc1c(-c2cccc(OC)c2)nc2ccc(C(=O)N(CCC(C)C)CCC(C)C)cn12 [Example 8]
IC50 (melanocortin-4 receptor [1]): < 0.1 µM
Emax (melanocortin-4 receptor [2]): 0%

COc1cccc(-c2nc3ccc(C(=O)N(CCC(C)C)CCC(C)C)cn3c2CCCN2CCCC2)c1 [Example 9]
IC50 (melanocortin-4 receptor [1]): < 0.1 µM
Emax (melanocortin-4 receptor [2]): 0%

COc1cccc(-c2nc3ccc(C(=O)N(CCC(C)C)CCC(C)C)cn3c2CCCNCC2CC2)c1 [Example 10]
IC50 (melanocortin-4 receptor [1]): > 1 µM
Emax (melanocortin-4 receptor [2]): 0%

COc1cccc(-c2nc3ccc(C(=O)N(CCC(C)C)CCC(C)C)cn3c2CCCN2CCC2)c1 [Example 11]
IC50 (melanocortin-4 receptor [1]): < 0.1 µM
Emax (melanocortin-4 receptor [2]): 0%

COc1cccc(-c2nc3ccc(C(=O)N(CCC(C)C)CCC(C)C)cn3c2CCCN2CCOCC2)c1 [Example 12]
IC50 (melanocortin-4 receptor [1]): < 0.1 µM
Emax (melanocortin-4 receptor [2]): 0%

COCC(C)NCCCc1c(-c2cccc(OC)c2)nc2ccc(C(=O)N(CCC(C)C)CCC(C)C)cn12 (centres unmarked) [Example 13]
IC50 (melanocortin-4 receptor [1]): > 1 µM
Emax (melanocortin-4 receptor [2]): 0%

COc1cccc(-c2nc3ccc(C(=O)N(CCC(C)C)CCC(C)C)cn3c2CCCN2CC[C@H](F)C2)c1 [Example 14]
IC50 (melanocortin-4 receptor [1]): < 0.1 µM
Emax (melanocortin-4 receptor [2]): 0%

COc1cccc(-c2nc3ccc(C(=O)N(CCC(C)C)CCC(C)C)cn3c2CCCN2CCN(C)CC2)c1 [Example 15]
IC50 (melanocortin-4 receptor [1]): 0.1 to 1 µM
Emax (melanocortin-4 receptor [2]): 0%

COc1cccc(-c2nc3ccc(C(=O)N(CCC(C)C)CCC(C)C)cn3c2CCCN2CCOC[C@@H]2C)c1 [Example 16]
IC50 (melanocortin-4 receptor [1]): < 0.1 µM
Emax (melanocortin-4 receptor [2]): 0%

CC(C)CCN(CCC(C)C)C(=O)c1ccc2nc(-c3ccc(C#N)cc3)c(CCCN3CCCC3)n2c1 [Example 17]
IC50 (melanocortin-4 receptor [1]): < 0.1 µM
Emax (melanocortin-4 receptor [2]): 0%

CC(C)CCN(CCC(C)C)C(=O)c1ccc2nc(-c3ccc(C#N)cc3)c(CCCN(C)C)n2c1 [Example 18]
IC50 (melanocortin-4 receptor [1]): 0.1 to 1 µM
Emax (melanocortin-4 receptor [2]): 0%

CC(C)CCN(CCC(C)C)C(=O)c1ccc2nc(-c3ccc(Cl)cc3)c(CCCN3CCCC3)n2c1 [Example 19]
IC50 (melanocortin-4 receptor [1]): < 0.1 µM
Emax (melanocortin-4 receptor [2]): 0%

CC(C)CCN(CCC(C)C)C(=O)c1ccc2nc(-c3ccc(Cl)cc3)c(CCCN(C)C)n2c1 [Example 20]
IC50 (melanocortin-4 receptor [1]): 0.1 to 1 µM
Emax (melanocortin-4 receptor [2]): -18%
EC50 (melanocortin-4 receptor [2]): < 0.1 µM

COc1cccc(-c2nc3ccc(C(=O)N(CCC(C)C)CCC(C)C)cn3c2CCC(C)N2CCCC2)c1 (centres unmarked) [Example 21]
IC50 (melanocortin-4 receptor [1]): < 0.1 µM
Emax (melanocortin-4 receptor [2]): 0%

CC(C)CCN(CCC(C)C)C(=O)c1ccc2nc(-c3ccc(Cl)cc3)c(CCCCN3CCCC3)n2c1 [Example 22]
IC50 (melanocortin-4 receptor [1]): 0.1 to 1 µM
Emax (melanocortin-4 receptor [2]): 0%

CCN(C)CCCCc1c(-c2ccc(Cl)cc2)nc2ccc(C(=O)N(CCC(C)C)CCC(C)C)cn12 [Example 23]
IC50 (melanocortin-4 receptor [1]): 0.1 to 1 µM
Emax (melanocortin-4 receptor [2]): 0%

CC(C)CCN(CCC(C)C)C(=O)c1ccc2nc(-c3ccc(Cl)cc3)c(CCCCN(C)C)n2c1 [Example 24]
IC50 (melanocortin-4 receptor [1]): > 1 µM
Emax (melanocortin-4 receptor [2]): 0%

CC(C)CCN(CCC(C)C)C(=O)c1ccc2nc(-c3ccc(C(N)=O)cc3)c(CCCN3CCCC3)n2c1 [Example 25]
IC50 (melanocortin-4 receptor [1]): < 0.1 µM
Emax (melanocortin-4 receptor [2]): 0%

CC(C)CCN(CCC(C)C)C(=O)c1ccc2nc(-c3ccc(C#N)cc3)c(CCN3CCCC3)n2c1 [Example 26]
IC50 (melanocortin-4 receptor [1]): 0.1 to 1 µM
Emax (melanocortin-4 receptor [2]): 0%

CC(C)CCN(CCC(C)C)C(=O)c1ccc2nc(-c3ccc(C#N)cc3)c(CCN3CCN(C)CC3)n2c1 [Example 27]
IC50 (melanocortin-4 receptor [1]): > 1 µM
Emax (melanocortin-4 receptor [2]): 0%

COc1cccc(-c2nc3ccc(C(=O)N(CCC(C)C)CCC(C)C)cn3c2CCCN(C)C)c1 [Example 28]
IC50 (melanocortin-4 receptor [1]): 0.1 to 1 µM
Emax (melanocortin-4 receptor [2]): 0%

CCN(C)CCCc1c(-c2cccc(OC)c2)nc2ccc(C(=O)N(CCC(C)C)CCC(C)C)cn12 [Example 29]
IC50 (melanocortin-4 receptor [1]): < 0.1 µM
Emax (melanocortin-4 receptor [2]): 0%

COc1cccc(-c2nc3ccc(C(=O)N(CCC(C)C)CCC(C)C)cn3c2CCCN2CCC(F)CC2)c1 [Example 30]
IC50 (melanocortin-4 receptor [1]): < 0.1 µM
Emax (melanocortin-4 receptor [2]): 0%

COc1cccc(-c2nc3ccc(C(=O)N(CCC(C)C)CCC(C)C)cn3c2CCCN2CCCCC2)c1 [Example 31]
IC50 (melanocortin-4 receptor [1]): < 0.1 µM
Emax (melanocortin-4 receptor [2]): 0%

COc1cccc(-c2nc3ccc(C(=O)N(CCC(C)C)CCC(C)C)cn3c2CCCN2CC[C@@H](F)C2)c1 [Example 32]
IC50 (melanocortin-4 receptor [1]): 0.1 to 1 µM
Emax (melanocortin-4 receptor [2]): 0%

COc1cccc(-c2nc3ccc(C(=O)N(CCC(C)C)CCC(C)C)cn3c2CCCN2CC[C@H](O)C2)c1 [Example 33]
IC50 (melanocortin-4 receptor [1]): < 0.1 µM
Emax (melanocortin-4 receptor [2]): -22%
EC50 (melanocortin-4 receptor [2]): < 0.1 µM

COc1cccc(-c2nc3ccc(C(=O)N(CCC(C)C)CCC(C)C)cn3c2CCCN2CC[C@@H](O)C2)c1 [Example 34]
IC50 (melanocortin-4 receptor [1]): < 0.1 µM
Emax (melanocortin-4 receptor [2]): -18%
EC50 (melanocortin-4 receptor [2]): < 0.1 µM

CC(C)CCN(CCC(C)C)C(=O)c1ccc2nc(-c3ccc(S(C)(=O)=O)cc3)c(CCCN3CCCC3)n2c1 [Example 35]
IC50 (melanocortin-4 receptor [1]): < 0.1 µM
Emax (melanocortin-4 receptor [2]): 0%

COc1cccc(-c2nc3ccc(C(=O)N(CCC(C)C)CCC(C)C)cn3c2CCCN2CCNCC2)c1 [Example 36]
IC50 (melanocortin-4 receptor [1]): > 1 µM
Emax (melanocortin-4 receptor [2]): 0%

COc1cccc(-c2nc3ccc(C(=O)N(CCC(C)C)CCC(C)C)cn3c2CCCN2CC(O)C2)c1 [Example 37]
IC50 (melanocortin-4 receptor [1]): < 0.1 µM
Emax (melanocortin-4 receptor [2]): 0%

C#CCN(C)CCCc1c(-c2cccc(OC)c2)nc2ccc(C(=O)N(CCC(C)C)CCC(C)C)cn12 [Example 38]
IC50 (melanocortin-4 receptor [1]): > 1 µM
Emax (melanocortin-4 receptor [2]): 0%

CC(C)CCN(CCC(C)C)C(=O)c1ccc2nc(-c3ccc4c(c3)OCO4)c(CCCN3CCCC3)n2c1 [Example 39]
IC50 (melanocortin-4 receptor [1]): < 0.1 µM
Emax (melanocortin-4 receptor [2]): 0%

Cc1ccnc(-c2nc3ccc(C(=O)N(CCC(C)C)CCC(C)C)cn3c2CCCN2CCCC2)c1 [Example 40]
IC50 (melanocortin-4 receptor [1]): 0.1 to 1 µM
Emax (melanocortin-4 receptor [2]): 0%

Cc1cccc(-c2nc3ccc(C(=O)N(CCC(C)C)CCC(C)C)cn3c2CCCN2CCCC2)n1 [Example 41]
IC50 (melanocortin-4 receptor [1]): < 0.1 µM
Emax (melanocortin-4 receptor [2]): 0%

CC(C)CCN(CCC(C)C)C(=O)c1ccc2nc(-c3ccc(Cl)cn3)c(CCCN3CCCC3)n2c1 [Example 42]
IC50 (melanocortin-4 receptor [1]): < 0.1 µM
Emax (melanocortin-4 receptor [2]): 0%

CC(C)CCN(CCC(C)C)C(=O)c1ccc2nc(-c3ccc4c(c3)NC(=O)CO4)c(CCCN3CCCC3)n2c1 [Example 43]
IC50 (melanocortin-4 receptor [1]): < 0.1 µM
Emax (melanocortin-4 receptor [2]): 0%

CC(C)CCN(CCC(C)C)C(=O)c1ccc2nc(-c3cc(O)ccn3)c(CCCN3CCCC3)n2c1 [Example 44]
IC50 (melanocortin-4 receptor [1]): < 0.1 µM
Emax (melanocortin-4 receptor [2]): 0%

CC(C)CCN(CCC(C)C)C(=O)c1ccc2nc(-c3ccc4c(c3)CCC(=O)N4)c(CCCN3CCCC3)n2c1 [Example 45]
IC50 (melanocortin-4 receptor [1]): < 0.1 µM
Emax (melanocortin-4 receptor [2]): 0%

CC(C)CCN(CCC(C)C)C(=O)c1ccc2nc(-c3cc(O)ccn3)c(CCCN(C)C)n2c1 [Example 46]
IC50 (melanocortin-4 receptor [1]): 0.1 to 1 µM
Emax (melanocortin-4 receptor [2]): 0%

CC(C)CCN(CCC(C)C)C(=O)c1ccc2nc(-c3ncco3)c(CCCN3CCCC3)n2c1 [Example 47]
IC50 (melanocortin-4 receptor [1]): < 0.1 µM
Emax (melanocortin-4 receptor [2]): 0%

Cc1nc(C)c(-c2nc3ccc(C(=O)N(CCC(C)C)CCC(C)C)cn3c2CCCN2CCCC2)o1 [Example 48]
IC50 (melanocortin-4 receptor [1]): < 0.1 µM
Emax (melanocortin-4 receptor [2]): 0%

CC(C)CCN(CCC(C)C)C(=O)c1ccc2nc(-c3nccs3)c(CCCN3CCCC3)n2c1 [Example 49]
IC50 (melanocortin-4 receptor [1]): < 0.1 µM
Emax (melanocortin-4 receptor [2]): 0%

CC(C)CCN(CCC(C)C)C(=O)c1ccc2nc(-c3ccc(C(=O)O)cc3)c(CCCN3CCCC3)n2c1 [Example 50]
IC50 (melanocortin-4 receptor [1]): 0.1 to 1 µM
Emax (melanocortin-4 receptor [2]): -1%

CC(C)CCN(CCC(C)C)C(=O)c1ccc2nc(-c3ccc(N(C)C)nc3)c(CCCN(C)C)n2c1 [Example 51]
IC50 (melanocortin-4 receptor [1]): < 0.1 µM
Emax (melanocortin-4 receptor [2]): 0%

CC(C)CCN(CCC(C)C)C(=O)c1ccc2nc(-c3ncco3)c(CCCN(C)C)n2c1 [Example 52]
IC50 (melanocortin-4 receptor [1]): 0.1 to 1 µM
Emax (melanocortin-4 receptor [2]): 0%
